Experimental data published in PubChem BioAssay AID449764 (Southern Research Specialized Biocontainment Screening …, 2010).

System: Mycobacterium tuberculosis H37Rv growth inhibition, no glycerol
Assay: Confirmatory growth inhibition assay, Mycobacterium tuberculosis H37Rv, absence of glycerol (AID 449764);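 note: growth read after 7 days of incubation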
Conditions: for IC90: measured here: IC90 growth inhibition

CC(C)OC(=O)c1ccc(COC(=O)c2cnccn2)cc1
IC50: 18 µM
IC90: > 100 µM

CCOC(=O)CSc1ccc(C(=O)Nc2ccc(OC)cc2)cn1
IC50: 0.46 µM
IC90: > 100 µM

O=C(/C=C/c1cn(-c2ccccc2)nc1-c1cccnc1)c1ccco1
IC50: 39.5 µM
IC90: 54.8 µM

CCN1C(=NCCc2ccc(Br)cc2)N[C@@H](c2ccccc2)[C@H](C(=O)OC)[C@H]1C
IC50: 22.4 µM
IC90: 25.8 µM

C(C#CCCCCCCCCC[n+]1ccccc1)#CCCCCCCCCC[n+]1ccccc1
IC50: 4.02 µM
IC90: 6.85 µM

CCCCCNc1nc(N2CCCC2)c2c(c1C#N)CCN(C)C2
IC90: > 100 µM

CCc1ccc2c(c1)C1(C(=O)N2)N2CCCC2C(C(=O)c2ccc3ccccc3c2)C12C(=O)Nc1ccccc12 (configuration not stated)
IC50: 23.9 µM
IC90: 36.2 µM

O=[N+]([O-])c1cc(C=Nc2ccc3ccccc3c2)ccc1Br
IC50: 34.5 µM
IC90: 44.5 µM

CCOC(=O)c1cnc(-n2nc(C)cc2C)nc1NNc1cc(C)nc(-c2ccccc2)n1
IC50: 74.6 µM
IC90: 93.7 µM

CC1(c2cc([N+](=O)[O-])cc([N+](=O)[O-])c2)CC(C)(C)N(C(=O)c2ccccc2)c2ccccc21 (configuration not stated)
IC50: 20.8 µM
IC90: 28.9 µM

COC(=O)CCc1sc(Nc2ccc(Br)cc2)nc1-c1ccc(OC)cc1
IC50: 40.9 µM
IC90: > 100 µM

CC(C)[C@H](CO)N(Cc1cccc(F)c1)c1nc(Nc2cccc(Cl)c2)c2ncn(C(C)C)c2n1
IC50: 37.5 µM
IC90: 57.4 µM

COc1ccc(NC(=O)CSC2=C(C#N)C(c3ccco3)C(C(=O)Nc3nc4ccccc4s3)=C(C)N2)cc1 (configuration not stated)
IC50: 7.09 µM
IC90: 16.4 µM

O=C(Oc1ccccc1)c1ccccc1OS(=O)(=O)c1ccccc1
IC50: 2.37 µM
IC90: 14.1 µM

Oc1ccccc1Nc1nc(NCc2ccccc2)c2ccccc2n1
IC50: 19.1 µM
IC90: 24.1 µM

c1ccc(-c2n[nH]c(-c3ccccn3)n2)cc1
IC50: 20.5 µM
IC90: 27.5 µM

CCCN(CCC)CCNC(=O)c1cc2c(-c3ccc(Cl)cc3)nn(C)c2s1
IC50: 23.9 µM
IC90: 27.1 µM

COc1ccc(-c2csc3ncnc(N4CCN(c5ccccc5OC)CC4)c23)cc1
IC50: 22.8 µM
IC90: 25.5 µM

COc1ccc(-c2cn(Cc3ccc(C(=O)NCc4ccc(C)cc4)cc3)c(C(C)N)n2)cc1 (configuration not stated)
IC50: 66 µM
IC90: 82.4 µM

COc1ccc(-c2nnc(NC(=O)c3ccc([N+](=O)[O-])o3)o2)c(OC)c1
IC50: 6.13 µM
IC90: 14 µM

COc1cccc(NC(=O)CNC(=O)Cn2cnc3sc4c(c3c2=O)CCCC4)c1
IC50: 66.7 µM
IC90: > 100 µM

Cc1c(Cl)cccc1NC(=O)CN1CCC(C(O)(c2ccccc2)c2ccccc2)CC1
IC50: 45.1 µM
IC90: > 100 µM

CCCCCCN=C1CC(C)(C)CC(=O)/C1=C(/O)CCC
IC50: 71 µM
IC90: > 100 µM

O=C(CCc1ccc(Oc2cc([N+](=O)[O-])cc([N+](=O)[O-])c2)cc1)N1CCCCCC1
IC50: 14.9 µM
IC90: 22.9 µM

COc1ccccc1C(CNC(=O)C(C)(C)Oc1ccc(Cl)cc1)N1CCCC1 (configuration not stated)
IC50: 27 µM
IC90: 42 µM

CCOc1ccc2nc(NC(=O)C34CC5CC(CC(NC(C)=O)(C5)C3)C4)sc2c1
IC50: 23.2 µM
IC90: 38.4 µM

COc1ccccc1N1CCN(CCCCOc2cccc3ccccc23)CC1
IC50: 33 µM
IC90: 43.5 µM

Cc1cc2c(ccc3c2no[n+]3[O-])nn1
IC50: 17.4 µM
IC90: 22.8 µM

Cc1ccc(CN2CCN(/N=C/c3ccc(Cl)c([N+](=O)[O-])c3)CC2)cc1
IC50: 39.4 µM
IC90: 55.3 µM

O=[N+]([O-])c1ccc(-n2cnc3ccccc32)c([N+](=O)[O-])c1
IC50: 96.4 µM
IC90: > 100 µM

Cc1cccc(NS(=O)(=O)c2ccc(C(=O)N3CCN(c4ccccc4O)CC3)cc2)c1C
IC50: 85.5 µM
IC90: > 100 µM

O=[N+]([O-])c1c(C(Cl)Cl)nn(-c2ccc(Cl)cc2)c1N1CCCCC1
IC50: 21.2 µM
IC90: 23.3 µM

Cn1c(CNc2ccccc2O)nc2ccccc21
IC50: 3.05 µM
IC90: 3.36 µM

COc1ccc(OC)c(Nc2nc(-c3sc(C)nc3C)cs2)c1
IC50: 70.1 µM
IC90: > 100 µM

Cc1ccc(-n2[nH]c(C)c(C=Nc3ccc(S(=O)(=O)Nc4nccs4)cc3)c2=O)c(C)c1
IC50: 6.3 µM
IC90: 12 µM

Cc1ccc(C(=O)c2cc(C)sc2NC(=O)CN2CCN(C(=O)c3ccco3)CC2)cc1
IC50: 14.9 µM
IC90: 27.4 µM

O=C(NCC1CC1)c1cc([N+](=O)[O-])cc([N+](=O)[O-])c1
IC50: 6.57 µM
IC90: 11.2 µM

N#CCn1c(CCl)nc2ccccc2c1=O
IC50: 22.8 µM
IC90: 25.8 µM

CCn1cc([N+](=O)[O-])c(C(=O)N2N=C(c3ccc4ccccc4c3)CC2c2ccccc2O)n1 (configuration not stated)
IC50: 50.1 µM
IC90: > 100 µM

O=C(OCn1nnc2ccccc2c1=O)C1CCCCC1
IC50: 5.88 µM
IC90: 6.69 µM

CCOC(=O)CCCc1ccc(/C(C)=N/NC(N)=S)cc1
IC50: 8.39 µM
IC90: 25 µM

COC(=O)CSc1nnc(CNc2ccc(Cl)cc2)n1-c1ccccc1
IC50: 22.4 µM
IC90: 25.3 µM

CC1=NN(C(N)=S)C(=O)C1N=Nc1ccc(C)c(Br)c1 (configuration not stated)
IC50: 37.2 µM
IC90: > 100 µM

CCC1CSC(Nc2ccc(C(=O)/C=C/c3cccc(C)c3)cc2)=N1 (configuration not stated)
IC50: 20.5 µM
IC90: 35.9 µM

COc1ccc(C(=O)COC(=O)[C@H](C)Nc2ccc(C(F)(F)F)cc2[N+](=O)[O-])cc1
IC50: 18.1 µM
IC90: > 25 µM

Cc1nc2ccc(NC(=O)c3ccc([N+](=O)[O-])cc3[N+](=O)[O-])cc2s1
IC50: 35.7 µM
IC90: > 100 µM

Cc1ccc(S(=O)(=O)Nc2cccc3ncccc23)s1
IC50: 3.38 µM
IC90: 6.54 µM

COc1ccc(-c2csc3nc(-c4ccccc4OC)oc(=O)c23)cc1
IC50: 5.44 µM
IC90: 22.1 µM

CC(C)(C)C1CCc2nc(NC(=O)Cc3cn4ccsc4n3)sc2C1 (configuration not stated)
IC50: 24.3 µM
IC90: 35.4 µM

COc1cc(CNCCc2ccccc2)cc(Cl)c1OCc1ccccc1
IC50: 23.8 µM
IC90: 26.2 µM

COc1cc(NC(=O)c2cccs2)c(C(=O)OCC(=O)NCc2ccco2)cc1OC
IC50: 34.9 µM
IC90: > 100 µM

COC(=O)c1cc(/C=C/c2ccccc2)on1
IC50: 29.3 µM
IC90: > 100 µM

CC(=O)N1CCN(c2ccc(Oc3ccc([N+](=O)[O-])c(C(F)(F)F)c3)cc2)CC1
IC50: 93.5 µM
IC90: > 100 µM

Cc1[nH]c2ccccc2c1/C=N/Nc1nc(Nc2ccccc2)nc(N2CCOCC2)n1
IC50: 6.68 µM
IC90: 13.6 µM

COC(=O)/C(=C1/Oc2cc(C)oc(=O)c2S1)C(F)(F)F
IC50: 26 µM
IC90: > 100 µM

Cn1c(=O)c2c3c(sc2n2c(SCC(N)=O)nnc12)CC(C(C)(C)C)CC3 (configuration not stated)
IC50: 24.7 µM
IC90: 41.7 µM

O=S(=O)(Nc1ccc2[nH]ncc2c1)c1ccccc1Cl
IC50: 11.3 µM
IC90: 17.1 µM

CCN(CC)S(=O)(=O)c1ccc2oc(SCC(=O)Nc3cc(C)on3)nc2c1
IC50: 10.8 µM
IC90: 16.6 µM

COC(=O)c1ccc2c(c1O)C(=O)c1ccccc1C2=O
IC50: 83.6 µM
IC90: 89.4 µM

O=S1(=O)N(CCN2CC=C(c3c[nH]c4cc(F)ccc34)CC2)c2cccc3c2N1CCC3
IC50: 11.2 µM
IC90: 12.3 µM

O=C(CCc1nnc(CCCc2ccccc2)o1)NCCCC1CCCC1
IC50: 21.5 µM
IC90: 24.9 µM

O=S(=O)(c1ccc(Cl)cc1)c1snnc1-c1ccccc1
IC50: 18.8 µM
IC90: 29.9 µM

COc1ccc(NC(C)C(=O)Nc2ccc(C(C)(C)C)cc2)cc1Cl (configuration not stated)
IC50: 94.1 µM
IC90: > 100 µM

CCc1cc(C(=O)NNC(=O)CCl)sc1C
IC50: 5.03 µM
IC90: 7.55 µM

CCOc1cccc2cc(C(=O)Nc3nccs3)c(=O)oc12
IC50: 2.4 µM
IC90: 15.3 µM

CCn1c(C)nc2cc(C(=O)OC(C(F)(F)C(F)F)C(F)(F)C(F)F)ccc21
IC50: 21.2 µM
IC90: 25.8 µM

Cc1nn(-c2ccccc2)nc1C(=O)c1c(C)[nH]n(-c2ccccc2)c1=O
IC50: 17.5 µM
IC90: 23.2 µM

C/C(=N\NC(=O)COc1ccc(C)cc1Br)c1cc([N+](=O)[O-])cs1
IC50: 24 µM
IC90: 26.4 µM

O=C1NN(c2ccc(Br)cc2)C(=O)/C1=C\c1ccc(O)cc1O
IC90: > 100 µM

Nc1c2c(nc3ccn(Cc4ccccc4)c(=O)c13)CCC2
IC50: 9.72 µM
IC90: 15.9 µM

O=C(OCc1csc(Nc2ccccc2)n1)c1ccc(Cl)cc1
IC50: 46.4 µM
IC90: 53 µM

COc1cc(N=Nc2ccc3ccccc3c2)ccc1O
IC50: 39.7 µM
IC90: 59.1 µM

O=C(c1ccc(-c2ccccc2)c(F)c1)C1CCCN(C(=O)c2cncs2)C1 (configuration not stated)
IC50: 32.5 µM
IC90: 49.4 µM

Cc1cc(-c2ccc(Cl)cc2)c2cnn(C(C)C)c2n1
IC50: 38.9 µM
IC90: 58.1 µM

CC1=NN(c2ccccc2)C(=O)/C1=C\c1c(C)[nH]n(-c2ccccc2)c1=O
IC90: > 100 µM

O=C(CN1CCCCC1)Nc1nnc(-c2ccc([N+](=O)[O-])cc2)s1
IC50: 44.9 µM
IC90: 69.6 µM

CC1CCCC(C)N1/N=C/c1c[nH]c2ccc(Br)cc12 (configuration not stated)
IC50: 22.7 µM
IC90: 29.1 µM

CCn1cnc2sc(C(=O)Oc3ccc(Br)cc3)c(C)c2c1=O
IC50: 4.83 µM
IC90: 8.17 µM

O=C(N/N=C/c1cccc2cccnc12)[C@H]1C[C@@H]1c1ccccc1
IC50: 38.2 µM
IC90: 56 µM

CC(NCCCOc1cccc2ccccc12)c1ccccc1 (configuration not stated)
IC50: 25.1 µM
IC90: 28 µM

CC(=O)c1cccc(NC(=O)C2C3C=CC(C3=C(c3ccccc3)c3ccccc3)C2C(=O)O)c1 (configuration not stated)
IC90: > 50 µM

COc1ccc(COC(=O)CCNC(=O)c2ccc(Cl)cc2)cc1
IC50: 71.1 µM
IC90: > 100 µM

Cc1ccc(OC/C(O)=C(\C#N)c2nc3ccccc3s2)cc1
IC50: 25.7 µM
IC90: 41.1 µM

CC(C)(C)C(=O)N1CCN(c2ccc(NC(=O)c3ccc([N+](=O)[O-])o3)cc2)CC1
IC50: < 0.2 µM
IC90: 1.93 µM

O=C(NNc1nc(-c2ccccc2)cs1)c1ccccc1
IC50: 40.2 µM
IC90: > 100 µM

CC/C(=C(\c1ccc(O)cc1)c1ccc(OCCN(C)C)cc1)c1ccccc1
IC50: 26.5 µM
IC90: 45 µM

Cc1ccc(/C=C2\SC(N3CCCC3)=NC2=O)cc1
IC50: 0.74 µM
IC90: 4.62 µM

c1ccc2c(c1)CCN(c1nc(CN3CCOCC3)nc3sc4c(c13)CCCC4)C2
IC50: 45.2 µM
IC90: 52.7 µM
